Entries after “also recorded” stand apart in the source; their conditions may differ.
Assays:
[1] = tested on: IL-1β expression in PMA-activated THP-1 cells; experiment: PMA-induced IL-1β expression in THP-1 cells (Q-PCR, immunoblotting); type: cell-based; conditions: for IL-1β mRNA expression, treatment after activation: PMA for 24 h, followed by treatment for another 24 h; for IL-1β mRNA and protein expression, pretreatment: pretreated 0.5 h, followed by PMA induction for 48 h
Protocol: Q-PCR analysis (left) and immunoblotting (right) for IL-1β mRNA and protein expression in THP-1 cells pretreated with AR001DS1 or AR001DS2 for 0.5 h, followed by PMA induction for 48 h.
Q-PCR analysis for IL-1β mRNA expression in THP-1 cells stimulated with PMA for 24 h, followed by treatment with or without AR001DS1 or AR001DS2 for another 24 h.
Because AR100 was composed of AR001DS1 and AR001DS2, THP-1 cells were independently pre-treated with the two components, followed by PMA activation.

[2] = tested on: TNF-α secretion in DCs from C57BL/6 mice; experiment: ELISA assay for TNF-α secretion by LPS-stimulated dendritic cells; type: cell-based; conditions: AR001DS1 12.5, 25, 50 and 100 μg/ml
Protocol: DCs were isolated from C57BL/6 mice and incubated at 37° C. for 7 days. Then DCs were plated in a 24-well plate and cultured at 37° C. overnight in a 5% CO2 atmosphere. DCs were treated with AR001DS1 (12.5, 25, 50 and 100 μg/ml) for 1 h, and then stimulated with lipopolysaccharide (LPS) for 4 h. The supernatants were collected and TNF-α secretion in culture supernatants was quantitated using an ELISA assay.

[3] = tested on: BALB/c mice with Con A-induced hepatitis; experiment: Con A-induced acute (autoimmune) hepatitis animal experiment; type: in vivo
Excerpt: Concanavalin A (Con A) and dexamethasone (Dex) were purchased from Sigma-Aldrich (USA). ProcartaPlex™ Immunoassays kit was purchased from Corning Inc. (USA). GOP and GPT Fuji Dri-Chem slides were purchased from Winning Medical Inc. (Taiwan).
Male BALB/c mice (7-9 weeks old) were purchased from BioLASCO Taiwan Co., Ltd or National Laboratory Animal Center (NLAC, Taiwan). Animals were housed five per cage with food and water provided ad libitum throughout the experiments. Room temperature was maintained at 23±2° C. with an alternating 12 h light-dark cycle. Animals were acclimatized for one week to minimize the effect of stress before the experiments. All experimental protocols involving animals and their care were approved by the Institutional Animal Care and Use Committee (IACUC) in ITRI (ITRI-IACUC-2018-041 and ITRI-IACUC-2018-050; accredited by AAALAC) and were carried out according to the regulations of the Council of Agriculture, Taiwan.
Con A was dissolved in pyrogen-free saline at a concentration of 3 mg/ml and intravenously injected at a dose of 15 mg/kg or 20 mg/kg of body weight to induce hepatitis. AR100DS1 and Dex were orally administered 30 min before and then 4 h and 8 h after Con A treatment. Blood and liver tissues were collected 24 h after Con A treatment. Serum were stored at −80° C. until analysis.
To assess the level of hepatocellular injury after Con A treatment, serum GPT and GOT levels were measured by Fuji Dri-Chem slides (Fuji, Japan).
The serum of the same group were pooled for cytokine assay. Cytokine levels were measured by ProcartaPlex™ Immunoassays kit according to manufacturer's instructions.
Liver tissues were fixed in 10% phosphate-buffered formaldehyde, embedded in paraffin, and stained with hematoxylin and eosin (H&E) in order to confirm tissue lesions. Tissue lesions were examined microscopically by a veterinary pathologist at BioLASCO Taiwan Co., Ltd. The criteria of severity grading system for all microscopic lesions were graded from 0 to 4 as follows: 0=none; 1=individual cell necrosis; 2=≤30% lobular necrosis; 3=≤60% lobular necrosis; 4=22 60% lobular necrosis.
Data are presented as mean±SEM. In this study, Student's t-test was used to analyze the differences between drug-and vehicle-treated groups. The difference is regarded statistically significant when p value is less than 0.05.
Autoimmune hepatitis (AIH) is a complex disease which is characterized by hepatocellular inflammation, necrosis, and a tendency to cirrhosis. The plant lectin concanavalin A (Con A)-induced acute hepatitis in BALB/c mice is a common animal model for AIH and we performed this model to evaluate the anti-hepatitis effects of AR001DS1. Dexamethasone (Dex), one of the steroids-based standard treatments of AIH, was used as a positive control.

[4] = tested on: PMA-induced cytokines in THP-1 cells; experiment: Bio-plex human 27-plex cytokine assay in PMA treated THP-1 cells; type: cell-based; conditions: 10 μg/ml for 0.5 hr, then PMA 10 ng/ml for 24 hr
Excerpt: In addition to IL-1β, several cytokines participated in inflammatory responses. To identify cytokine networks affected by AR001DS1, we performed Bio-plex analysis to monitor the effect of AR001DS1 treatment on the expression of human 27 cytokines in PMA treated THP-1 cells.

RBL-2H3 cells = experiment: β-Hexosaminidase secretion assay (mast cell degranulation); type: cell-based; conditions: 12.5, 25, 50 and 100 μg/ml, anti-DNP IgE-sensitized, DNP-BSA stimulated
Protocol: RBL-2H3 cells were plated in a 24-well plate and then sensitized with anti-dinitrophenyl (DNP)-IgE overnight at 37° C. in a 5% CO2 atmosphere. After washing, the cells were treated with AR001DS1 (12.5, 25, 50 and 100 μg/ml) at 37° C. for 30 min, and then stimulated with DNP-bovine serum albumin (BSA) at 37° C. for 30 min to induce degranulation. The supernatant was transferred to a 96-well microplate and incubated for 2 h with equal volume of 5 mM 4-nitrophenyl N-acetyl-b-glucosaminide in 0.1M citrate buffer (pH 4.5). The reaction was terminated by adding […] of stop buffer (0.05 M sodium carbonate, pH 10), and OD at 405 nm was determined using an ELISA plate reader.

[5] = tested on: animal model of gout arthritis; experiment: Animal model of gout arthritis; conditions: in vivo

Which results are given for `C=CC(OC(C)=O)c1ccc(OC(C)=O)cc1` (stereo not drawn) [AR001DS2, 1′-acetoxychavicol acetate]?
IL-1β mRNA expression, treatment after activation [1]: did not suppressed; IL-1β mRNA and protein expression, pretreatment [1]: blocked the expression of IL-1β; also recorded: inhibits PMA-induced IL-1β expression

`O=c1c(O)c(-c2ccc(O)c(O)c2)oc2cc(O)cc(O)c12` [quercetin, reference compound] was tested. Which “secretion of TNF-α” value [2] did it give?
The value was “effectively reduced the secretion of TNF-α”.

For `C[C@@H]1C[C@H]2[C@@H]3CCC4=CC(=O)C=C[C@]4(C)[C@@]3(F)[C@@H](O)C[C@]2(C)[C@@]1(O)C(=O)CO` [Dex, dexamethasone], which “serum GPT” value ([3]; 15 mg/kg Con A, oral, Con A alone 1437±398) is on record?
The value was 898±515 U/L.

What about the “serum GOT” value ([3]; 15 mg/kg Con A, oral, Con A alone 1450±433) of the same compound?
The value was 809±339 U/L.

And the “liver necrosis histopathological score (0-4)” value ([3]; 15 mg/kg Con A, Con A alone 2.2±0.2)?
Its value is 1.6±0.6.

And the “liver necrosis histopathological score (0-4)” value ([3]; 20 mg/kg Con A)?
Its value is 2.6±0.2.

What about the “serum GPT” value ([3]; 20 mg/kg Con A, oral) of the same compound?
The value was 1940±403 U/L.

And the “serum GOT” value ([3]; 20 mg/kg Con A, oral, Con A alone 2249±549)?
Its value is 1261±282 U/L.

What does the source list for `C=C1C(=O)OC2/C=C(\C)CC3C=C(CC/C=C(\C)CCC12)C(=O)O3` (stereo not drawn) [AR001DS1, ovatodiolide]?
liver necrosis histopathological score (0-4) ([3]; 50 mg/kg oral, 15 mg/kg Con A, vehicle 1.4±0.2): 0.2±0.2; serum GPT ([3]; 50 mg/kg oral, 15 mg/kg Con A, vehicle 368±107, p<0.05): 109±25 U/L; serum GOT ([3]; 50 mg/kg oral, 15 mg/kg Con A, vehicle 410±56): 261±45 U/L; IL-1β mRNA expression, treatment after activation [1]: inhibits PMA-induced IL-1β expression; IL-1β mRNA expression, treatment after activation ([1]; listed as AR100DS1): attenuated the expression of IL-1β; IL-1β mRNA and protein expression, pretreatment [1]: blocked the expression of IL-1β; also recorded: inhibits PMA-induced IL-1β expression; IL-1β expression (Bio-plex) [4]: attenuated its expression; MIP-α and -β expression (Bio-plex) [4]: blocked their expressions; induction of IL-8, TNF-α and RANTES (Bio-plex) [4]: inhibited; secretion of β-hexosaminidase (degranulation) (RBL-2H3 cells): significantly inhibited; also recorded: suppress mast cell degranulation in a dose-dependent manner; secretion of TNF-α [2]: better inhibitory effect on the secretion of TNF-α in LPS-stimulated DCs than quercetin; also recorded: suppress TNF-α secretion by dendritic cells (DCs) in a dose-dependent manner; effect on gout arthritis [5]: therapeutic effects

Source: patent publication US20200009110A1, “METHOD FOR TREATING AN ALLERGIC DISEASE” (Arjil Biotech Holding Company Limited, priority 2018, published 2020)
